Data set [1] can be described thus: Antitumor activity against human HCT116 cells xenografted in nude mouse assessed as tumor growth inhibition at 75 mg/kg,[…] ip administered every 7 days for 2 doses relative to control. The settings on record: HCT-116, ip, 168 h, route intraperitoneal, read-out: TGI. It counts as functional. In general terms: A xenograft is tissue or cells of one species grown in another, often human tumour cells in immunodeficient mice.

Data set [2] is described as follows: Cell cycle arrest in human HCT116 cells assessed as accumulation at sub-G1 phase at 1 uM after 24 hrs by FACS flow cytometric analysis (reference value: 1.37 +/- 0.95%). It counts as functional, cell-based. The settings on record: HCT-116. For orientation: In flow cytometry, cells or beads pass a laser one at a time.
For data set [3], the system named is Mus musculus. Kind of data set: Toxicity in iv dosed CD-1 (ICR) mouse assessed as swelling of nose measured for 14 days. Conditions: in vivo, 336 h. It counts as organism-based.
Data set [4] is described as follows: Antitumor activity against human PC3 cells xenografted in nude mouse assessed as tumor growth inhibition at 30 mg/kg,iv qd administered for 6 days measured on day 38 relative to control. It is filed as functional. Conditions: PC-3, iv, read-out: TGI.
A short description of data set [5]: Cell cycle arrest in human HCT116 cells assessed as accumulation at S phase at 1 uM after 72 hrs by FACS flow cytometric analysis (reference value: 7.49 +/- 0.95%). It counts as functional, cell-based. The settings on record: HCT-116.
Data set [6] has as its system PC-3. Kind of data set: Antitumor activity against human PC3 cells xenografted in nude mouse assessed as survival at 50 mg/kg,iv administered every 2 days for 5 doses. It is filed as functional, organism-based. The arrangement: dose 50 mg/kg.
The test system of data set [7] is Mus musculus. Kind of data set: Toxicity in CD-1 (ICR) mouse assessed as body weight loss at 75 to 105 mg/kg, iv measured on day 8. It counts as organism-based. More on the design: dose 75-105 mg/kg, route intravenous. The settings on record: in vivo.
Data set [8] deals with Mus musculus. Kind of data set: Toxicity in iv dosed CD-1 (ICR) mouse assessed as swelling of cheek measured for 14 days. The settings on record: in vivo, 336 h. It is filed as organism-based.
Data set [9] in a line: Cell cycle arrest in human HCT116 cells assessed as accumulation at G1 phase at 2 uM after 48 hrs by FACS flow cytometric analysis (reference value: 62.16 +/- 5.94%). It is filed as functional, cell-based. Conditions: HCT-116.
The test system of data set [10] is HCT-116. The experiment in a line: Induction of apoptosis in human HCT116 cells assessed as caspase-3 cleavage at 1 to 4 uM after 24 hrs by Western blot analysis. It is filed as functional, cell-based.
Data set [11] can be described thus: Cell cycle arrest in human HCT116 cells assessed as accumulation at G1 phase at 2 uM after 72 hrs by FACS flow cytometric analysis (reference value: 76.29 +/- 2.65%). It is filed as functional, cell-based. Conditions: HCT-116.
In data set [12] the test system is Mus musculus. The experiment in a line: Toxicity in nude mouse xenografted with human PC3 cells assessed as change in body weight at 30 mg/kg,iv qd administered for 6 days measured on day 31 relative to control. It counts as organism-based, PC-3. The arrangement: dose 30 mg/kg. Conditions: in vivo, 144 h.
In data set [13] the test system is Mus musculus. The experiment in a line: Toxicity in iv dosed CD-1 (ICR) mouse assessed as piloerection measured for 14 days. It counts as organism-based. Conditions: in vivo, 336 h.
Data set [14] relates to Mus musculus. The experiment in a line: Toxicity in nude mouse xenografted with human HCT116 cells assessed as body weight loss at 30 mg/kg,iv qd administered for 6 days measured on day 13 relative to control. It is filed as organism-based, HCT-116. The arrangement: dose 30 mg/kg. Conditions: in vivo, 144 h.
Data set [15] in a line: Cell cycle arrest in human HCT116 cells assessed as accumulation at G2/M phase at 2 uM after 72 hrs by FACS flow cytometric analysis (reference value: 12.82 +/- 2.19%). It counts as functional, cell-based. Conditions: HCT-116.
In data set [16] the test system is Mus musculus. The experiment in a line: Toxicity in iv dosed CD-1 (ICR) mouse assessed as dehydration measured for 14 days. It is filed as organism-based. Conditions: in vivo, 336 h.
The test system of data set [17] is PC-3. The experiment in a line: Antitumor activity against human PC3 cells xenografted in nude mouse assessed as survival at 30 mg/kg,iv qd administered for 6 days. It is filed as functional, organism-based. The arrangement: dose 30 mg/kg.
Data set [18] in a line: Cell cycle arrest in human HCT116 cells assessed as accumulation at G1 phase at 1 uM after 72 hrs by FACS flow cytometric analysis (reference value: 76.29 +/- 2.65%). It is filed as functional, cell-based. Conditions: HCT-116.
A short description of data set [19]: Cytotoxicity against human HCT116 cells assessed as growth inhibition after 72 hrs by Alamar Blue assay. It counts as functional, cell-based. Conditions: HCT-116, 72 h.
Data set [20] in a line: Antitumor activity against human PC3 cells xenografted in nude mouse assessed as tumor growth inhibition at 40 mg/kg,iv administered every 2 days for 5 doses measured on day 38 relative to control. It counts as functional. The settings on record: PC-3, iv, read-out: TGI.
Data set [21] is described as follows: Cell cycle arrest in human HCT116 cells assessed as accumulation at S phase at 1 uM after 48 hrs by FACS flow cytometric analysis (reference value: 12.11 +/- 4.28%). It counts as functional, cell-based. The settings on record: HCT-116.
Data set [22] is described as follows: Cell cycle arrest in human HCT116 cells assessed as accumulation at G1 phase at 4 uM after 48 hrs by FACS flow cytometric analysis (reference value: 62.16 +/- 5.94%). It counts as functional, cell-based. Conditions: HCT-116.
A short description of data set [23]: Cell cycle arrest in human HCT116 cells assessed as accumulation at G2/M phase at 2 uM after 24 hrs by FACS flow cytometric analysis (reference value: 31.55 +/- 4.63%). The settings on record: HCT-116. It is filed as functional, cell-based.
The subject of data set [24] is Mus musculus. Kind of data set: Toxicity in nude mouse xenografted with human HCT116 cells assessed as change in body weight at 30 mg/kg,iv qd administered for 6 days measured on day 31 relative to control. It counts as organism-based, HCT-116. The arrangement: dose 30 mg/kg. The settings on record: in vivo, 144 h.

SMILES strings stand for the structures. Activity calls are given as the source filed them. The calls are words filed in the database; no cut-off is given here.

Consider `CCN(CC)CC(=O)Nc1ccc(NC(=O)Nc2ccc(N(CCCl)CCCl)cc2)cc1`, for which, in data set [1], the inhibition in vivo at 75 mg/kg was 54%. The Activity was 1.58% in [2]; “Dose-dependent effect” in data set [3]; 11.7% in [5]; “Toxic” in [7]; “Dose-dependent effect” in [8]; 49.5% in data set [9]. In addition, the Activity in [11] is 38.7%; in data set [12], -28%; in [13], “Dose-dependent effect”; in data set [15] it was 29.2%; in [16] it was “Dose-dependent effect”; in [18], 54.9%. Further, the Activity in [21] was determined as 11.9%; in data set [22], 19%; in data set [23], 64.3%; in data set [24] it was 9%. Moreover, the inhibition in vivo at 30 mg/kg in data set [4] amounted to 16%. The result in data set [6], in data set [10] and in data set [17] was Active. Further, the “body weight change relative to control” value in [14] is -5%. Further, the IC50 in data set [19] came out at 820 nM. Besides, the inhibition in vivo at 40 mg/kg in data set [20] was 3%.

A word on the IC50: it is the point on the concentration scale where inhibition reaches its midpoint.

These data come from ChEMBL document CHEMBL3351946, “Design and synthesis of potent antitumor water-soluble phenyl N-mustard-benzenealkylamide conjugates via a bioisostere approach” (Eur J Med Chem, 2014).
